A short description of the assay: mitochondrial fusion inhibitors, confirmation, cell-based, chemical genetic, wild-type and mutant (AID 1361). Particulars: Cell-based mitochondrial fusion phenotype, imaging.
Where [1] appears, read: mutant cells, measured here: mutant cell line IC50.

Each structure is given as a SMILES string. Calls of active or inactive are those of the source. The rule behind the calls is not given here.

Here are results for 67 molecules from PubChem BioAssay AID1361 (SRMLSC, 2008).

By IC50 is commonly meant the concentration at which inhibition is half-maximal.

For `Cc1oc(-c2ccccc2F)nc1CN1CCC(C(=O)NCCC2=CCCCC2)CC1`, the IC50 runs as follows: (WT cells) > 25 µM (inactive); under setting [1], more than 25 µM.
Regarding `Cc1csc(NC(=O)c2c(O)c3c(n(CC(C)C)c2=O)CCCC3)n1`, the IC50 is 14.7 µM (WT cells) and more than 25 µM under setting [1].
Taken in the same sequence, the figures for `CCOC(=O)CSc1n[nH]c(-c2cccnc2)n1` were > 25 µM (inactive) and more than 25 µM.
As to `O=C1CC(SCc2nc3ccccc3[nH]2)C(=O)N1c1cccc(F)c1` (centres undefined), the IC50 reads like this: (WT cells) > 25 µM (inactive); under setting [1], more than 25 µM.
Taken in the same sequence, the figures for `CCCCCC[n+]1c(-c2ccccc2)csc1Nc1ccccc1` were 4.95 µM and 14.8 µM.
Taken in the same sequence, the figures for `COc1ccc(C2=NN(C(=O)c3cccs3)C(c3ccccc3O)C2)cc1` (centres undefined) were 13.8 µM and 24.9 µM.
Taken in the same sequence, the figures for `COC(=O)c1ccc(NCC(=O)c2ccccc2)cc1` were > 25 µM (inactive) and more than 25 µM.
For the molecule `COc1cccc(-c2cnc(OC(C)(C)C)nc2OC(C)(C)C)c1`, the concentration for half-maximal inhibition (IC50) by setting is: (WT cells) 24 µM; under setting [1], more than 25 µM.
Consider `CCCC/C(C)=C/[C@@H](NP(=O)(c1ccccc1)c1ccccc1)c1ccccc1`, for which the IC50 is 9.84 µM (WT cells) and more than 25 µM under setting [1].
In the case of `COc1cc(/C=N/NC(=O)CCc2ccccc2)ccc1O`, the IC50 is > 25 µM (inactive) (WT cells) and more than 25 µM under setting [1].
On to `CC(C)COC(=O)c1cccc2c1-c1ccccc1/C2=N\O`, for which the IC50 reads like this: (WT cells) > 25 µM (inactive); under setting [1], more than 25 µM.
Taken in the same sequence, the figures for `O=C1N(O)C2(C=CCCC2)/C(=N\O)C12CCCCC2` (centres undefined) were > 25 µM (inactive) and more than 25 µM.
With `O=c1c2ccccc2[nH]c(=S)n1-c1ccc2c(c1)OCO2`, the IC50 (WT cells) was > 25 µM (inactive) and the IC50 under setting [1] is more than 25 µM.
`CC(NC(=O)/C(=C/c1ccc(OC(F)F)cc1)c1ccccc1)c1ccccc1` (centres undefined): the IC50 is 11.5 µM (WT cells) and more than 25 µM under setting [1].
On to `COc1ccc(OC)c(S(=O)(=O)Nc2ccc(Oc3ccccc3)cc2)c1`, for which the IC50 runs as follows: (WT cells) > 25 µM (inactive); under setting [1], more than 25 µM.
`Cc1ccc(C)c(NC(=O)c2ccccc2C(=O)c2ccccc2)c1`: the IC50 reads like this: (WT cells) 18.2 µM; under setting [1], more than 25 µM.
`CC(C)N(C(=S)NC1CC2CCC1C2)c1ccccc1` (centres undefined): the IC50 (WT cells) is 25 µM (inactive) and the half-maximal inhibitory concentration (IC50) under setting [1] was more than 25 µM.
Taken in the same sequence, the figures for `O=C(Nc1ccc2c(c1)nc1n2CCN(Cc2ccccc2)C1)c1cccs1` were > 25 µM (inactive) and more than 25 µM.
For the molecule `CCN(Cc1ccccc1)C(c1ccc(C(F)(F)F)cc1)c1nnnn1C(C)(C)C` (centres undefined), the IC50 was 8.69 µM (WT cells) and more than 25 µM under setting [1].
Regarding `CC(=O)N1CCC(O)(c2cccc(C(F)(F)F)c2)CC1`, the IC50 (WT cells) is > 25 µM (inactive) and the IC50 under setting [1] is more than 25 µM.
`CCOC(=O)C1CCN(S(=O)(=O)c2c(C)n[nH]c2C)CC1`: the IC50 is > 25 µM (inactive) (WT cells) and more than 25 µM under setting [1].
The matching figures for `Cc1ccc(-c2nnc(SCC(=O)N3CCOCC3)nc2-c2ccc(C)cc2)cc1`: > 25 µM (inactive) and more than 25 µM.
Taken in the same sequence, the figures for `O=C(N=C1SCC(=O)N1c1ccccc1Cl)c1ccccc1` were > 25 µM (inactive) and more than 25 µM.
Taken in the same sequence, the figures for `COc1ccc2ccc3c(c2c1)N=C[C@]1(O3)N(C)c2ccccc2C1(C)C` were 8.07 µM and more than 25 µM.
In the case of `O=C(CSc1nnc2scc(-c3ccccc3)n12)Nc1ccc2c(c1)OCCO2`, the IC50 runs as follows: (WT cells) > 25 µM (inactive); under setting [1], more than 25 µM.
The matching figures for `CCOC(=O)C1=C(NC(=S)NC(=O)c2ccccc2)c2ccccc2CC12CCCC2`: 6.33 µM and more than 25 µM.
On to `COc1ccc(C2N(c3ccc(Cl)cc3)N=C(C(C)=O)N(C)N2C(C)=O)cc1` (centres undefined), for which the IC50 by setting is: (WT cells) 15.8 µM; under setting [1], more than 25 µM.
The matching figures for `O=C(c1ccco1)N1CCN(c2c(-c3ccccc3)c3cc(Cl)ccc3[nH]c2=O)CC1`: 13.2 µM and more than 25 µM.
Taken in the same sequence, the figures for `Cc1ccc(OCc2n[nH]c(=S)n2-c2ccccc2)cc1C` were 24.4 µM and more than 25 µM.
Turning to `O=S(=O)(NCCOCCNS(=O)(=O)c1ccccc1)c1ccccc1`, the IC50 is > 25 µM (inactive) (WT cells) and more than 25 µM under setting [1].
Consider `COC(=O)CNC(c1ccccc1)c1cc(Cl)ccc1NC(=O)c1cccc(Cl)c1` (centres undefined), for which the IC50 by setting is: (WT cells) 10.4 µM; under setting [1], more than 25 µM.
The matching figures for `COCCN(C(=S)Nc1c(C)cc(C)cc1C)C(C)c1cccs1` (centres undefined): 23.3 µM and more than 25 µM.
Consider `COc1cc(/C=C2\SC(=O)N(c3ccccc3Cl)C2=O)cc([N+](=O)[O-])c1O`, for which the IC50 is 13.6 µM (WT cells) and 20.8 µM under setting [1].
Taken in the same sequence, the figures for `CC1=CN2C(=N)/C(=C/c3ccc(Sc4ccc(C)cc4)o3)C(=O)N=C2S1` were 7.68 µM and more than 25 µM.
`O=C(CCCCCN1C(=O)c2ccccc2C1=O)Nc1ccc(S(=O)(=O)N2CCCCC2)cc1`: the IC50 (WT cells) is > 25 µM (inactive) and the concentration for half-maximal inhibition (IC50) under setting [1] was more than 12.5 µM.
The matching figures for `CC(c1ccccc1)N(CCC(c1ccccc1)C1CCOC(C)(C)C1)C(=O)c1ccco1` (centres undefined): 19.2 µM and more than 25 µM.
The matching figures for `Cc1ccc(C(C(=O)NC2CCCC2)N(C(=O)Cc2cccs2)c2ccc(C)c(C)c2)o1` (centres undefined): 22.4 µM and more than 25 µM.
Taken in the same sequence, the figures for `CCc1nn(C(C)C(=O)NCCN2CCN(c3cccc(C)c3C)CC2)c(=O)c2cc3occc3n12` (centres undefined) were > 25 µM (inactive) and more than 25 µM.
Turning to `Oc1ccc2ccccc2c1/C=N/c1nc2c(s1)CCCC2`, the IC50 by setting is: (WT cells) > 25 µM (inactive); under setting [1], more than 25 µM.
The matching figures for `CCOc1ccccc1N1CCN(C(=O)Nc2ccc(Cl)c(Cl)c2)CC1`: 20.9 µM (inactive) and more than 12.5 µM.
The matching figures for `O=C(NC(=S)Nc1ccccc1N1CCCCC1)c1ccccc1`: 24.9 µM (inactive) and more than 25 µM.
The matching figures for `Cc1cc(N/N=C/c2ccc(O)c(C)c2O)nc(-c2ccccc2O)n1`: > 25 µM (inactive) and more than 25 µM.
As for `Cc1ccc2c(c1)c1c(n2CC(O)Cn2nc(C)c(Br)c2C)CCCC1` (centres undefined), the IC50 is, setting by setting: (WT cells) 12.3 µM; under setting [1], 22.8 µM.
The matching figures for `O=C(c1csc(Nc2ccccc2Cl)n1)N1CCCC1`: > 25 µM (inactive) and more than 25 µM.
The matching figures for `CN(C)S(=O)(=O)c1ccc(C(=O)Nc2nnc(-c3ccc4c(c3)CCCC4)o2)cc1`: 12.8 µM and 22 µM.
As for `O=C(Nc1ccccc1Oc1ccccc1)c1cc([N+](=O)[O-])ccc1Cl`, the half-inhibitory concentration (IC50) (WT cells) was 6.46 µM and the IC50 under setting [1] came to 19.6 µM.
Taken in the same sequence, the figures for `Cc1cc(Nc2nc(Cl)c(Cl)cc2Cl)n(-c2ccccc2)n1` were 24.1 µM and more than 25 µM.
With `Cc1ccccc1COC(=O)c1nn(-c2ccccc2)nc1N`, the IC50 runs as follows: (WT cells) > 25 µM (inactive); under setting [1], more than 25 µM.
Taken in the same sequence, the figures for `CCCCCOc1ccc(CSCCNC(=S)Nc2ccccc2)cc1` were 5.86 µM and more than 25 µM.
The matching figures for `Cc1ccc(NC(=O)CC2S/C(=N/N=C3\CCCc4ccccc43)NC2=O)cc1` (centres undefined): 22.2 µM and more than 25 µM.
The matching figures for `CCOC(=O)c1c(NC(=O)CN2CCN(C(=O)c3ccco3)CC2)sc2c1CCCC2`: 23.2 µM and more than 25 µM.
Regarding `Cc1cccc(N2CCN(C(c3cccs3)c3nnnn3C(C)(C)C)CC2)c1C` (centres undefined), the IC50 is, setting by setting: (WT cells) 10.9 µM; under setting [1], more than 25 µM.
Consider `C/C(N)=C(/C#N)C(=O)CSc1nnnn1-c1ccccc1`, for which the IC50 is, setting by setting: (WT cells) > 25 µM (inactive); under setting [1], more than 25 µM.
For `O=C1c2ccccc2C(=O)N1CCN1CCCCC1`, the IC50 is > 25 µM (inactive) (WT cells) and more than 25 µM under setting [1].
In the case of `O=C(N/C=N/OCc1ccc(Cl)cc1Cl)NOCc1ncc(C(F)(F)F)cc1Cl`, the IC50 was 16 µM (WT cells) and more than 25 µM under setting [1].
Taken in the same sequence, the figures for `O=C(c1ccccc1)c1nnc(-c2ccncc2)o1` were > 25 µM (inactive) and more than 25 µM.
With `CCOC(=O)c1cc2c(ccn2C)n1Cc1cc(C)ccc1C`, the IC50 is, setting by setting: (WT cells) 25 µM (inactive); under setting [1], more than 25 µM.
The matching figures for `NC(=O)c1ccc(NC(=O)CCCN2C(=O)c3ccccc3C2=O)cc1`: > 25 µM (inactive) and more than 25 µM.
Taken in the same sequence, the figures for `O=C(COC(=O)c1cc(-c2cccc(Br)c2)nc2ccccc12)NCC1CCCO1` (centres undefined) were 19.8 µM and more than 25 µM.
As to `CC1CCCN(c2nc3c(c(=O)[nH]c(=O)n3C)n2Cc2ccccc2Cl)C1` (centres undefined), the IC50 is, setting by setting: (WT cells) 17.4 µM; under setting [1], more than 25 µM.
Take `CC(C(=O)Nc1ccc(Cl)cc1Cl)N1CC=C(c2ccccc2)CC1` (centres undefined): the 50% inhibitory concentration (IC50) (WT cells) was 8.63 µM and the IC50 under setting [1] was found to be 13.3 µM.
Taken in the same sequence, the figures for `C=CCOc1c(Br)cc(/C=N/Nc2ccc(C(=O)O)cc2)cc1OCC` were 22.1 µM and more than 25 µM.
Taken in the same sequence, the figures for `COc1ccccc1CNC(=O)c1ccc(-c2ccccc2C(F)(F)F)o1` were 21.3 µM and more than 25 µM.
The matching figures for `OC1(c2cccc(C(F)(F)F)c2)CCN(c2ncnc3c2[nH]c2ccccc23)CC1`: 18 µM and more than 25 µM.
For `CN1CCN(c2nc(-c3cccnc3)nc3ccccc23)CC1`, the IC50 was > 25 µM (inactive) (WT cells) and more than 25 µM under setting [1].
For `CCC(C)(C)c1ccc(Oc2ccc(N)cc2)cc1`, the IC50 reads like this: (WT cells) > 25 µM (inactive); under setting [1], more than 25 µM.
The matching figures for `COc1ccc(OCCC(=O)N2CCCCC2)cc1`: > 25 µM (inactive) and more than 25 µM.
